PMC3964211, “Pharmacokinetic modeling optimizes inhibition of the ‘undruggable’ EWS-FLI1 transcription factor in Ewing Sarcoma” (Oncotarget, 2013)

System: A4573 xenograft
Experiment: Orthotopic mouse xenograft model, A4573, IP dosing
Format: in vivo, SCID/bg mice
Details: for Tumor histology (hematoxylin and eosin): A4573 tumors, two hours following the 6th dose; for Tumor histology (hematoxylin and eosin) / Regression of tumor volume over 3 days: BID IP 400 mg/kg; for Regression of tumor volume over 3 days: A4573 xenograft, 3-day, six-dose
Experimental: A series of models that combined results from in vitro colony assays and in vivo PK data were developed to evaluate several potential dosing schemes for the mice (Supplementary Figures 1A-E). We selected an IP dosing strategy (twice daily (BID) injections of […] racemic mixture) that would maintain a 3 ¼M plasma levels for greater than 72 hours in the mice (Figure 3A). With this IP dosing regimen, xenograft growth of A4573 was 70% less in the YK-4-279 treatment group compared to vehicle control (Figure 3B, p=0.04). […] To confrm the impact of YK-4-279 treatment on xenograft growth, mice with SK-ES xenografts were treated with racemic, (S), or (R)-YK-4-279 until control tumors reached 1 cm^3. Xenograft growth was reduced for those mice receiving both racemic and (S)-YK-4-279 over the control (Figure 3D, p=0.02 and p=0.003, respectively). […] Tumors were analyzed for drug levels of racemic, (R)-, and (S)-YK-4-279. Three of four mice treated with racemic compound had tumor levels of (S)-YK-4-279 that ranged from ~12-35 ¼g eq/g, which correlated with tumor growth ratios of less than 1.0, indicating response to the drug (Figure 3F). Those animals treated with the active (S)-YK-4-279 levels had tumor levels that were below 10 ¼g eq/g (Figure 3F). Tumor levels of (R)-YK-4-279 are also provided (Supplementary Figure 1F).
In order to evaluate tumors from animals treated in a similar fashion, including resection prior to central necrosis in controls, a 3-day, six-dose, experiment was executed. Treatment was initiated with racemic, (S)-, or (R)-YK-4-279 using BID IP administration at 400 mg/kg when tumors were well established at a volume of 250 to 300 mm^3. Both ES models treated with either racemic or (S)-YK-4-279 regressed by 25–30% of tumor volume over 3 days, while tumors grew in control and (R)-YK-4-279 treated animals (Figures 4A and B). Two hours following the 6th dose, mice were euthanized for tumor analysis. […] To confirm the apoptotic cell death, sections from A4573 tumors were stained with TUNEL (Figures 4D) and there was a 3 – 4 fold increase in TUNEL-positive cells treated with (S)-YK-4-279 compared to (R)-YK-R-279 treated tumors (Figure 4E). […] Levels of each enantiomer were measured in tumor samples and (S)-YK-4-279 levels correlated with clinical regression (Supplemental Figure 2B–E).
Two million A4573 or SK-ES Ewing's sarcoma cells in 0.1 mL were injected into an orthotopic paraosseous location, adjacent to the left proximal tibia, in 5-week-old female severe combined immunodeficient-beige (SCID/bg) mice (Harlan Laboratories, Inc., Indianapolis, IN). After primary tumors reached 250 – 300 mm^3 size, mice were randomized and received intraperitoneal injection (IP) with vehicle control (0.25% Lecithin solution or DMSO), (S)-YK-4-279, (R)-YK-4-279 or racemic YK-4-279 at a dose of 400 mg/kg twice a day (BID) for 7 days in a week. The tumor volume was determined by the formula (D × d2/6) × p, where D was the longer diameter and d was the shorter diameter. Tumor volume was monitored every day by caliper until the tumor size reaches 1cm^3. Mice were euthanized and primary tumors were collected. For the pharmacodynamics study mice were randomized and received 6 doses treatment with vehicle control (0.25% Lecithin solution or DMSO), (S)-YK-4-279, (R)-YK-4-279 or racemic YK-4-279 at a dose of 400 mg/kg twice a day (BID). Mice were euthanized after 2 hours of last 6th dosing and primary tumors were collected. […]

Compound | Tumor histology (hematoxylin and eosin) | Xenograft growth less than vehicle control (A4573 xenograft mice, BID IP racemic mixture (375 mg/kg in text, 400 mg/kg in Figure 3 legend), p=0.04) | Regression of tumor volume over 3 days
COc1ccc(C(=O)CC2(O)C(=O)Nc3c(Cl)ccc(Cl)c32)cc1 (centres unmarked) [YK-4-279] | vacuolar cell death and nuclear fragmentation consistent with apoptosis | 70% | 25–30%
COc1ccc(C(=O)C[C@]2(O)C(=O)Nc3c(Cl)ccc(Cl)c32)cc1 [(R)-YK-4-279] | healthy tumor cells, but fewer mitotic figures than the DMSO control |  | tumors grew
